Test [1] has as its target truncated human beta-secretase (residues 1-458, His6-tagged at the C-terminus) (Homo sapiens (Human), UniProt P56817). The test is described as follows: BACE enzyme assay (fluorescence quench assay, Example 434A). In kind it is biochemical.
Test [2] deals with H4 neuroglioma cell line stably expressing APP with the KM-NL Swedish mutation (H4-APPsw); soluble Amyloid Beta 1-40 (Aβ 1-40) (Homo sapiens (Human), UniProt P56817). The test is described as follows: BACE cell assay: soluble Aβ 1-40 in culture media of H4-APPsw cells (AlphaLISA/ELISA). In kind it is cell-based. Particulars: in vitro cell activity; H4-APPsw cells treated overnight, secreted Aβ 1-40 in culture media. As for the experimental part: H4 neuroglioma cell line that stably expresses Amyloid Precursor Protein (APP) containing the KM-NL Swedish mutation (H4-APPsw) was generated. For the assay, cells are treated overnight in the presence of inhibitor and the culture media are subjected to ELISA analysis of soluble Amyloid Beta 1-40 (Aβ 1-40).
Chain of H4 neuroglioma cell line stably expressing APP with the KM-NL Swedish mutation (H4-APPsw); soluble Amyloid Beta 1-40 (Aβ 1-40) (P56817 46-501 limits assumed, change not shown): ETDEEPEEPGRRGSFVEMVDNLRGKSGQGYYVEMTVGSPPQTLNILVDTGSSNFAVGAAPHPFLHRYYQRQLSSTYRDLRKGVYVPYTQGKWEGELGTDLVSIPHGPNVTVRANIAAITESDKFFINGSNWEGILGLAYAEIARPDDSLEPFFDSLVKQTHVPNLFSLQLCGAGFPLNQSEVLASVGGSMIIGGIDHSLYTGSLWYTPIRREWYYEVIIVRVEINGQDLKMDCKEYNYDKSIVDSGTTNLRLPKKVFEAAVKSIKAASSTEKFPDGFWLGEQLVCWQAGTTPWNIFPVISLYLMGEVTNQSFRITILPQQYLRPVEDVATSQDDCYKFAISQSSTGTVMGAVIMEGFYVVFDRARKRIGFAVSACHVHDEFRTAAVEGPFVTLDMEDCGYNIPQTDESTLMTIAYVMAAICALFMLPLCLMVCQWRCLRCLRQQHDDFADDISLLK
Generation and Maintenance of H4-APPsw Cell Line
H4 neuroglioma cell line was cultured in DMEM with 10% FBS and 1% penicillin/streptomycin (Culture Medium) at 37° C., 5% CO2. […] 24 hrs after transfection, the cells were replaced into three new plates (150 mm) in fresh Culture Medium with 250 ug/mL Zeocin. […] The levels of APPsw expression were analyzed by immunoblotting and the production of Aβ 1-40 was detected by ELISA of culture supernatants. The selected clones are maintained in Culture Medium with 250 μg/mL Zeocin and routinely split in 3-4 days to maintain 20-80% confluence.
Final Assay Conditions (96-Well Plate)
Split H4-APPsw cells in Culture Medium and culture overnight such that cells will be ˜80% confluent next morning.
Create Compound Dilution Plate.
After determining the desired final concentration of compound to be tested, create a 500× dilution plate. Add DMSO, but not inhibitor, to each well of Column 1. […] Add compounds of interest at 500× desired final concentration to wells A3-A10. […] Dilute contents of Row A 1:3 in Row B, then continue through Rows C-H.
Add 4 μL 5 mM control compound to Media Plate wells A1-D1 for determination of full inhibition.
With a multichannel pipettor, mix each well of Media Plate several times to insure homogeneity. […] Next, place Medium Plate and Cell Plate in the incubator.
Trypsinize and count H4-APPsw cells. Dilute cells 6×10^5 cells/mL in Culture Medium and remove Cell Plate from incubator. Vortex cells to homogeneity, then using a multichannel repeating pipettor, add 100 μL cell suspension to Cell Plate, adding cells from Row H to Row A. Place Cell Plate in incubator.
Change media in Cell Plate.
After 5 h, check Cell Plate by microscope to insure cells are attached. In culture hood, remove media from Cell Plate using multichannel repeating pipettor. Add 100 μl Culture Medium to each well. Remove Media Plate from incubator and mix with pipettor as previous. Add 100 μl from each well of Media Plate to corresponding well in Cell Plate. Place Cell Plate in incubator overnight.
Perform ELISA to determine levels of secreted Aβ 1-40.
After 16 h incubation, spin Cell Plate for 8 min at 1200 rpm. The primary reading of Aβ 1-40 levels is done using PerkinElmer AlphaLISA technology. Follow the manufacturer's protocol for performing AlphaLISA in a white ½ area Optiwell plate using Row 12 for peptide standard (1:2 dilutions, starting at 15 ng/ml). Data are acquired using PerkinElmer Fusion-Alpha FP-HT, Alpha protocol (Count Time 0.6s, Count Time Ratio 30%:70%).
Export data from Fusion using Columnar Report format into a separate file for each plate. Upload data into Activity Base using RIA-DOSE-RESPONSE protocol (Version 1). Data from at least eight doses were fitted to a four parameter logistical model using XLfit software to determine potency.

[3] abbreviates: footnote a: protocols described in Example 434A, read-out: IC50.

Like-named read-outs stand apart in the source and are kept apart here. Where only a bound is given, the exact number is not on record here.

Chain of truncated human beta-secretase (residues 1-458, His6-tagged at the C-terminus) (P56817 22-458): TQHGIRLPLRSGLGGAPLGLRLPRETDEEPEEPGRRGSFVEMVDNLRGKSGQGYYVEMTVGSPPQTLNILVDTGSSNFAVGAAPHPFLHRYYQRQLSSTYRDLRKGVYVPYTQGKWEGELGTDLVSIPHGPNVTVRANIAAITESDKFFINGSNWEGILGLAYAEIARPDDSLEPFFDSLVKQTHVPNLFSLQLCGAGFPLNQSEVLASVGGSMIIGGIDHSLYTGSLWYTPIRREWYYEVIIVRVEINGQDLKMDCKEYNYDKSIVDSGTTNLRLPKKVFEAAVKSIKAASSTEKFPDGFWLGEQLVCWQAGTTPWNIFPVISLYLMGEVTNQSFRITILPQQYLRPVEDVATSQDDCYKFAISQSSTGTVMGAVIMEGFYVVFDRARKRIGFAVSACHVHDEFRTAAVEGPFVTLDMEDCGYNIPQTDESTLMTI

`COC1CCC2(CC1)Cc1ccc(C#CC3CC3)cc1C21N=C(N)NC1=O` (stereo not drawn) [Compound 264]: the IC50 in test [1] (setting [3]) was 29.2 nM.
Regarding `CN1OC2(N=C1N)c1cc(-c3cccc(C#N)c3)ccc1CC21CC=C(F)CC1` (stereo not drawn) [Compound 34], the IC50 is less than 1000 nM in test [2] and 93.3 nM in test [1] (setting [3]).
Molecule `CN1C(=O)C2(N=C1N)c1cc(Br)ccc1CC21CCc2ccccc2CC1` (stereo not drawn) [Compound 56] came in with an IC50 in test [2] of less than 5000 nM.
For `CN1OC2(N=C1N)c1cc(-c3cccc(C#N)c3)ccc1CC21Cc2cccc3cccc(c23)C1` (stereo not drawn) [Compound 61], the IC50 in test [1] (setting [3]) is 3260 nM.
`CN1OC2(N=C1N)c1cc(-c3cccc(C#N)c3)ccc1CC21CCC(NCC(F)(F)F)CC1` (stereo not drawn) [Compound 98]: in test [1] (setting [3]), the IC50 worked out at 3320 nM.
As to `COC1CCC2(CC1)Cc1ccc(C#CC3CC3)cc1[C@]21N=C(N)N(C)C1=O` (stereo partly drawn) [Compound 478], the IC50 in test [1] (setting [3]) is 2.2 nM.
On the same count and under the same terms, to `CN1OC2(N=C1N)c1cc(Br)ccc1OC21CCc2ccccc2CC1` (stereo not drawn) [Compound 67] belongs 138 nM.
Take `CCO[C@H]1CC[C@]2(CC1)Cc1ccc(-c3cccc(C#N)c3)cc1C21N=C(N)N(C)O1` (stereo partly drawn) [Compound 28]: the IC50 was less than 500 nM in test [2] and 41.7 nM in test [1] (read-out: IC50).
In the case of `COC1CCC2(CC1)Cc1ccc(-c3ccnnc3)cc1C21N=C(N)N(C)O1` (stereo not drawn) [Compound 108], the IC50 in test [1] (setting [3]) came to 156 nM.
The same measure, in the same setting: to `COC1CCC2(CC1)Cc1ccc(OCC3CC3)cc1C21N=C(N)N(C)O1` (stereo not drawn) [Compound 110] belongs 14.6 nM.
With `CN1OC2(N=C1N)c1ccccc1CC21CCc2ccccc2CC1` (stereo not drawn) [Compound 35], the IC50 in test [2] was less than 1000 nM.
Regarding `Cc1ccc2c(c1)C1(N=C(N)N(C)O1)C1(CCc3ccccc3CC1)C2` (stereo not drawn) [Compound 104], in test [1] (setting [3]), the IC50 amounted to 255 nM.
For `CN1OC2(N=C1N)c1cc(C#CC3CC3)ccc1CC21CCC(OC(F)F)CC1` (stereo not drawn) [Compound 99], half-maximal inhibition in test [1] (IC50) was put at 2.4 nM.
`COC1CCC2(CC1)Cc1ccc(C#Cc3ccccc3)cc1C21N=C(N)N(C)O1` (stereo not drawn) [Compound 112]: in test [1] (setting [3]), the IC50 stood at 80.4 nM.
`CN1C(=O)C2(N=C1N)c1cc(-c3cc(F)cc(Cl)c3)ccc1CC21CCc2ccccc2CC1` (stereo not drawn) [Compound 26] yielded an IC50 in test [2] of less than 5000 nM.
Take `CN1OC2(N=C1N)c1cc(-c3cccc(C#N)c3)ccc1CC21CCOCC1` (stereo not drawn) [Compound 51, 3-(spiro[spiro[2,3-dihydro-indene-2,1′-(4-oxacyclohexane)]-1,5′-(3-amino-2-methyl-2H-[1,2,4]oxadiazole)]-6-yl)benzonitrile]: the concentration for half-maximal inhibition (IC50) in test [1] (setting [3]) came out at 466 nM.
Regarding `COc1cncc(-c2ccc3c(c2)C2(N=C(N)N(C)O2)C2(CCC(OC)CC2)C3)n1` (stereo not drawn) [Compound 111], the IC50 in test [1] (setting [3]) was determined as 196 nM.
For the molecule `COC1CCC2(CC1)Cc1ccc(-c3ccc4cc[nH]c4c3)cc1C21N=C(N)N(C)O1` (stereo not drawn) [Compound 37], the IC50 in test [1] (setting [3]) was found to be 126 nM.
The same measure, in the same setting: to `CO[C@H]1CC[C@]2(CC1)Cc1c(F)cccc1C21N=C(N)N(C)C1=O` (stereo partly drawn) [Compound 249] belongs 493 nM.
For the molecule `CCN1C(=O)C2(N=C1N)c1cc(C#CC3CC3)ccc1CC21CCC(OC)CC1` (stereo not drawn) [Compound 138], the IC50 in test [1] (setting [3]) was determined as 15.6 nM.
Still for that read-out and setting: to `COC1CCC2(CC1)Cc1ccc(Br)cc1C21N=C(N)N(C)O1` (stereo not drawn) [Compound 95] belongs 137 nM.
With `COC1CCC2(CC1)Cc1ccc(CCC3CC3)cc1C21N=C(N)N(C)O1` (stereo not drawn) [Compound 117], in test [1] (setting [3]), the IC50 came out at 17.4 nM.
Still for that read-out and setting: the value for `CN1C(=O)C2(N=C1N)c1cc(C#CC3CC3)ccc1CC21CCC(O)CC1` (stereo not drawn) [Compound 150] was 3 nM; that for `CN1OC2(N=C1N)c1cc(-c3cccc(C#N)c3)ccc1CC21CCC(OC(F)F)CC1` (stereo not drawn) [Compound 100] was 4.7 nM; that for `Cc1onc2c1CC1(CC2)Cc2ccc(-c3cccnc3)cc2C12N=C(N)N(C)O2` (stereo not drawn) [Compound 451] was 58.6 nM.
In the case of `Cc1onc2c1CC1(CC2)Cc2ccc(C#CC3CC3)cc2C12N=C(N)N(C)O2` (stereo not drawn) [Compound 468], in test [1] (setting [3]), the IC50 was 16.7 nM.
The same measure, in the same setting: to `CCOC1CCC2(CC1)Cc1ccc(C#CC3CC3)cc1C21N=C(N)N(C)O1` (stereo not drawn) [Compound 24] belongs 21 nM; to `CCOC1CCC2(CC1)Cc1ccc(-c3cccc(C#N)c3)cc1C21N=C(N)N(C)O1` (stereo not drawn) [Compound 82], 432 nM.
`COC1CCC2(CC1)Cc1ccc(C#CC(C)(C)C)cc1C21N=C(N)N(C)O1` (stereo not drawn) [Compound 113]: in test [1] (setting [3]), the IC50 was 24.6 nM.
Same read-out and setting: to `CO[C@H]1CC[C@@]2(CC1)Cc1ccc(-c3cccc(C#N)c3)cc1C21CC(=O)N(C)C(N)=N1` (stereo partly drawn) [Compound 65] belongs 50000 nM.
Regarding `COC1CCC2(CC1)Oc1ccc(-c3cccc(C#N)c3)cc1C21N=C(N)N(C)O1` (stereo not drawn) [Compound 68], the IC50 in test [1] (setting [3]) turned out to be 1780 nM.
Regarding `COC1CCC2(CC1)Cc1ccc(C#CC3CC3)cc1C21N=C(N)N(Cc2ccccc2)C1=O` (stereo not drawn) [Compound 142], the 50% inhibitory concentration (IC50) in test [1] (setting [3]) was 2 nM.
Take `COC1CCC2(CC1)Cc1ccc(C#CC(F)(F)F)cc1C21N=C(N)N(C)O1` (stereo not drawn) [Compound 115]: in test [1] (setting [3]), the IC50 is 3.7 nM.
Consider `CN1OC2(N=C1N)c1cc(C#CC3CC3)ccc1CC21CCc2ccccc2CC1` (stereo not drawn) [Compound 105], for which, in test [1] (setting [3]), the IC50 is 8.4 nM.
Consider `COC1CCC2(CC1)Cc1ccc(-c3cc(F)ccc3C)cc1C21N=C(N)N(C)O1` (stereo not drawn) [Compound 32], for which the IC50 in test [1] (setting [3]) was 74.1 nM.
As to `CN1OC2(N=C1N)c1cc(-c3cccc(C#N)c3)ccc1CCC21CCc2ccccc2CC1` (stereo not drawn) [Compound 63], the 50% inhibitory concentration (IC50) in test [1] (setting [3]) was 5050 nM.
The same measure, in the same setting: to `COC1CCC2(CC1)Cc1ccc(-c3cncs3)cc1C21N=C(N)N(C)O1` (stereo not drawn) [Compound 116] belongs 76.7 nM; to `CN1OC2(CC3(CCOCC3)c3ccc(-c4cccc(C#N)c4)cc32)N=C1N` (stereo not drawn) [Compound 69, 3-(spiro[spiro[2,3-dihydro-indene-3,1′-(4-oxacyclohexane)]-1,5′-(3-amino-2-methyl-2H-[1,2,4]oxadiazole)]-6-yl)benzonitrile], 4700 nM; to `COC1CCC2(CC1)Cc1ccc(C#CC3CCCC3)cc1C21N=C(N)N(C)O1` (stereo not drawn) [Compound 114], 9.7 nM.
On the same count and under the same terms, the value for `CN1OC2(N=C1N)c1cc(-c3ccnnc3)ccc1CC21CCc2ccccc2CC1` (stereo not drawn) [Compound 122] was 42.5 nM.
On the same count and under the same terms, to `COC1CCC2(CC1)Cc1ccc(C#CC3CC3)cc1C21N=C(N)N(C)C1=O` (stereo not drawn) [Compound 76] belongs 2.1 nM; to `CO[C@H]1CC2(Cc3ccc(-c4cccc(C#N)c4)cc3C23N=C(N)N(C)O3)C[C@H]1OC` (stereo partly drawn) [Compound 62], 4110 nM; to `CN1OC2(N=C1N)c1cc(-c3cccc(C#N)c3)ccc1CC21CCC(NCC(F)(F)F)CC1` (stereo not drawn) [Compound 97], 3880 nM.
For the molecule `CN1C(=O)C2(N=C1N)c1cc(-c3cccc(C#N)c3)ccc1CC21CCc2ccccc2CC1` (stereo not drawn) [Compound 29], the IC50 in test [2] is less than 500 nM.
With `COC1CCC2(CC1)Cc1ccc(C#CC3CC3)cc1[C@@]21N=C(N)N(C)C1=O` (stereo partly drawn) [Compound 477], the IC50 in test [1] (setting [3]) is 694 nM.
With `COC1CCC2(CC1)Cc1ccc(C3=CC(O)CC3)cc1C21N=C(N)N(C)C1=O` (stereo not drawn) [Compound 476], in test [1] (setting [3]), the IC50 worked out at 33.1 nM.
In turn, `CN1OC2(N=C1N)c1cc(-c3cccc(C#N)c3)ccc1CC21C=CC(c2ccccc2)C1` (stereo not drawn) [Compound 53] registered an IC50 in test [2] of less than 50000 nM.
`CN1OC2(N=C1N)c1cc(-c3cccc(C#N)c3)ccc1CC21CCc2cnncc2CC1` (stereo not drawn) [Compound 456]: the IC50 in test [1] (setting [3]) is 877 nM.
`CN1OC2(N=C1N)c1cc(-c3cccnn3)ccc1CC21CCc2ccccc2CC1` (stereo not drawn) [Compound 121]: the IC50 in test [1] (read-out: IC50) was 56.2 nM.
With `COC1CCC2(CC1)Cc1ccc(-c3cnccn3)cc1C21N=C(N)N(C)O1` (stereo not drawn) [Compound 109], the IC50 in test [1] (setting [3]) is 23.6 nM.
Take `Cc1onc2c1CC1(CC2)Cc2ccc(C#CC3CC3)cc2C12N=C(N)N(C)C2=O` (stereo not drawn) [Compound 467]: the IC50 in test [1] (setting [3]) amounted to 2.8 nM.
The same measure, in the same setting: to `CN1C(=O)C2(N=C1N)c1cc(C#CC3CC3)ccc1CC21CCC(O)CC1` (stereo not drawn) [Compound 151] belongs 207 nM.

By IC50 is commonly meant the midpoint of a concentration-inhibition curve.

These data come from US8633212B2, “Inhibitors of beta-secretase” (Vitae Pharmaceuticals, Inc., priority 2009, dated 2014).
